Values after ≈ are worked out from the molar mass of the structure shown.
Assays:
NCI-H187 = experiment: Cytotoxicity against human NCI-H187 cells by sulforhodamine B assay; assay type: functional, cell-based
KB = experiment: Cytotoxicity against human KB cells by sulforhodamine B assay; assay type: functional, cell-based
[1] = system: Mycobacterium tuberculosis; experiment: Antimycobacterial activity against Mycobacterium tuberculosis H37Ra after […] by microplate alamar Blue assay; assay type: functional
Vero = experiment: Cytotoxicity against african green monkey Vero cells by sulforhodamine B assay; assay type: cell-based; details: Chlorocebus sabaeus

| SMILES | IC50 (NCI-H187) [µg/mL] | IC50 (KB) [µg/mL] | MIC [1] [µg/mL] | IC50 (Vero) [µg/mL] |
| --- | --- | --- | --- | --- |
| CC(C)=CCc1c2c(c(O)c3c(=O)c(O)c(-c4ccc(O)cc4)oc13)C=CC(C)(C)O2 [DEHYDROLUPINIFOLINOL] | 3.9 (≈ 9.28 µM) | 5.8 (≈ 13.8 µM) | 12.5 (≈ 29.7 µM) | 11.1 (≈ 26.4 µM) |
| COc1cccc2c1C(=O)c1c(O)c3c(c(O)c1C2=O)C[C@@](O)(C(=O)CO)C[C@@H]3O[C@H]1C[C@H](N)[C@H](O)[C@H](C)O1 [DOXORUBICIN] | 0.042 (≈ 0.0773 µM) | 0.12 (≈ 0.221 µM) | – | – |
| Cc1c2ccncc2c(C)c2c1[nH]c1ccccc12 [ELLIPTECINE] | 0.44 (≈ 1.79 µM) | 0.37 (≈ 1.5 µM) | – | – |
| CC(C)=CCc1c(O)c2c(c3c1OC(C)(C)C=C3)O[C@H](c1ccc(O)cc1O)CC2=O [ERIOSEMAONE A] | 6 (≈ 14.2 µM) | 5.8 (≈ 13.7 µM) | 12.5 (≈ 29.6 µM) | – |
| CC(C)=CCc1c2c(c(O)c3c1O[C@H](c1ccc(O)cc1O)CC3=O)C=CC(C)(C)O2 [FLEMICHIN D] | 2.1 (≈ 4.97 µM) | 3.3 (≈ 7.81 µM) | 12.5 (≈ 29.6 µM) | – |
| NNC(=O)c1ccncc1 [ISONIAZID] | – | – | 0.023 (≈ 0.168 µM) | – |
| COc1ccc([C@H]2Oc3c(CC=C(C)C)c4c(c(O)c3C(=O)[C@@H]2O)C=CC(C)(C)O4)cc1 [KHONKLONGINOL A] | 3 (≈ 6.87 µM) | 3.1 (≈ 7.1 µM) | 25 (≈ 57.3 µM) | 7.9 (≈ 18.1 µM) |
| COc1ccc([C@H]2Oc3c(CC=C(C)C)c4c(c(O)c3C(=O)[C@H]2O)C=CC(C)(C)O4)cc1 [KHONKLONGINOL B] | 4.3 (≈ 9.85 µM) | 3.8 (≈ 8.71 µM) | 50 (≈ 115 µM) | 6.9 (≈ 15.8 µM) |
| COc1ccc(-c2oc3c(CC=C(C)C)c4c(c(O)c3c(=O)c2O)C=CC(C)(C)O4)cc1 [KHONKLONGINOL F] | 2.4 (≈ 5.52 µM) | 6.7 (≈ 15.4 µM) | 100 (≈ 230 µM) | 7 (≈ 16.1 µM) |
| COc1ccc([C@@H]2CC(=O)c3c(O)c4c(c(CC=C(C)C)c3O2)OC(C)(C)C=C4)c(O)c1 [KHONKLONGINOL H] | 3.3 (≈ 7.56 µM) | 5.4 (≈ 12.4 µM) | 25 (≈ 57.3 µM) | 6.4 (≈ 14.7 µM) |
| CC(C)=CCc1c2c(c(O)c3c1O[C@H](c1ccc(O)cc1)[C@@H](O)C3=O)C=CC(C)(C)O2 [LUPINIFOLINOL] | 3.5 (≈ 8.28 µM) | 1.73 (≈ 4.09 µM) | 25 (≈ 59.2 µM) | – |
| CC(C)=CCc1c2c(c(O)c3c1O[C@H](c1ccc(O)cc1)CC3=O)C=CC(C)(C)O2 [LUPINIFOLIN] | 6.5 (≈ 16 µM) | 2.4 (≈ 5.9 µM) | 12.5 (≈ 30.8 µM) | – |
| CN[C@@H]1[C@H](O[C@H]2[C@H](O[C@H]3[C@H](O)[C@@H](O)[C@H](N=C(N)N)[C@@H](O)[C@@H]3N=C(N)N)O[C@@H](C)[C@]2(O)C=O)O[C@@H](CO)[C@H](O)[C@H]1O [STREPTOMYCIN] | – | – | 0.156 (≈ 0.268 µM) | – |
